Test results reported in patent EP4722195A1, “PH-SENSITIVE CATIONIC LIPID AND LIPID NANOPARTICLES” (National University Corporation Hokkaido University, priority 2023, dated 2024).

Key:
[1] = tested on: proprotein convertase subtilisin/kexin type 9 (PCSK9); test: PCSK9-targeted genome editing in mice, serum PCSK9 (ELISA); type: in vivo, Balb/c mice; settings: Example 34, Fig. 13
Description: Specifically, an RNA solution was first prepared to contain Cas9-mRNA (TriLink, 5moU-modified) and gRNA targeting proprotein convertase subtilisin/kexin type 9 (PCSK9) (SEQ ID NO: 3) at a mass ratio of 1:2 (N/P = 6.0). Using this RNA solution, in the same manner as Example 32, lipid nanoparticles encapsulating Cas9-mRNA and PCSK9-gRNA and having a composition of TxT-5-SA14/DSPC/chol/PEG-DMG = 50/3/47/1.5 (mol%) were prepared (lipid nanoparticles for PCSK9-targeted genome editing). […]
Subsequently, the prepared lipid nanoparticles for PCSK9-targeted genome editing were administered via tail vein injection to female Balb/c mice (4 weeks old) at doses of 0.3, 1.0, and 2.0 mg RNA/kg. […] The collected blood was allowed to stand at room temperature for 1 hour, followed by centrifugation at 4°C, 1,000 × g for 10 minutes. The supernatant was collected to obtain serum. The concentration of PCSK9 in the serum was measured using a commercially available ELISA kit (Mouse/Rat PCSK9 ELISA Kit, CircuLex). Calibration samples were prepared by serial dilution from 6 ng/mL to obtain solutions of 3, 1.5, 0.75, 0.375, 0.188, and 0.094 ng/mL, each in 300 µL volumes. Serum samples were diluted 100-fold. […] Finally, 100 µL of Stop Solution (CircuLex) was added, and absorbance at 450 nm and 540 nm was measured using a spectrophotometer (Varioskan Lux, Thermo Fisher Scientific).

[2] = tested on: spleen; test: Fluc activity in the spleen of mice administered Fluc mRNA-loaded lipid nanoparticles; type: in vivo, BALB/c mice; settings: Example 22, Fig. 1; TxT/DSPC/chol/PEG-DMG=50/15/35/1.5 (mol%); 0.1 mg mRNA/kg intravenous; six hours after administration; comparison among TxT lipids
Description: (§1) Lipid nanoparticles were administered to mice by intravenous injection into the tail vein using a 27G needle. Unless otherwise specified, BALB/c mice (4 to 5 weeks old, female) were used.
(§2) First, BALB/c mice (female, 4 weeks old) were intravenously injected with lipid nanoparticles encapsulating Fluc mRNA (Fluc mRNA-loaded lipid nanoparticles) at a dose of 0.1 mg mRNA/kg. Six hours after intravenous injection, the mice were euthanized, each tissue was collected, frozen in liquid nitrogen, and stored at -80°C. The tissues were homogenized in passive lysis buffer (manufactured by Promega) using a bead-type cell disruptor (Micro Smash MS-100R, manufactured by TOMY Seiko). Tissue debris was removed by centrifugation, and the supernatant was collected. Fluc activity in the supernatant was measured using the Luciferase Assay System (E1500, manufactured by Promega) according to the manufacturer's protocol. Luminescence was measured using a luminometer (Luminescencer-PSN, manufactured by ATTO). Protein concentration was determined using a commercially available assay kit (BCA Protein Assay Kit, manufactured by Pierce). Fluc activity was expressed as relative light units (RLU) per mg of protein. […]

[3] = tested on: various tissues; test: Fluc activity in various tissues of mice administered Fluc mRNA-loaded lipid nanoparticles; type: in vivo, BALB/c mice; settings: Example 23, Figs. 2B to 2E; TxT-5-5A16/DSPC/chol/PEG-DMG=50/X/50-X/1.5 (mol%); 0.1 mg mRNA/kg; six hours
Description: as §1, §2

For CCCCCCCN(CCCCCCC)C(=O)CCCC(=O)OCC(COC(=O)CCCC(=O)N(CCCCCCC)CCCCCCC)(COC(=O)CCCC(=O)N(CCCCCCC)CCCCCCC)NC(=O)CCN1CCCCC1 [TxT-5-5A14, 2-(((5-(diheptylamino)-5-oxopentanoyl)oxy)methyl)-2-(3-(piperidin-1-yl)propanamido)propane-1,3-diyl bis(5-(diheptylamino)-5-oxopentanoate)], the “PCSK9 knockout efficiency versus dose” value ([1]; 0.3, 1.0, and 2.0 mg RNA/kg) was “dose-dependent increase in PCSK9 knockout efficiency” and the PCSK9 knockout activity ([1]; dose of 2.0 mg RNA/kg tail vein, serum PCSK9 ten days after administration, N = 3 to 6) was “no less than 90%”.
For CCCCCCC(CCCC)CNC(=O)CCCC(=O)OCC(COC(=O)CCCC(=O)NCC(CCCC)CCCCCC)(COC(=O)CCCC(=O)NCC(CCCC)CCCCCC)NC(=O)CCN1CCCCC1 (stereo not drawn) [TxT-5-5A12β, 2-(((5-((2-butyloctyl)amino)-5-oxopentanoyl)oxy)methyl)-2-(3-(piperidin-1-yl)propanamido)propane-1,3-diyl bis(5-((2-butyloctyl)amino)-5-oxopentanoate)], the “Fluc activity in the spleen” value [2] was “highest Fluc activity in the spleen”.
In the case of CCCCCCCCN(CCCCCCCC)C(=O)CCCC(=O)OCC(COC(=O)CCCC(=O)N(CCCCCCCC)CCCCCCCC)(COC(=O)CCCC(=O)N(CCCCCCCC)CCCCCCCC)NC(=O)CCN1CCCCC1 [TxT-5-5A16, 2-(((5-(dioctylamino)-5-oxopentanoyl)oxy)methyl)-2-(3-(piperidin-1-yl)propanamido)propane-1,3-diyl bis(5-(dioctylamino)-5-oxopentanoate)], the “Effect of DSPC content on Fluc activity in the spleen, kidney, lung, and heart” value [3] is reported as “no effect of DSPC content on Fluc activity was observed”.
